The source made the active and inactive calls. No cut-off for these calls is given here.
Tests used:
[1] = Oral bioavailability in Sprague-Dawley rat at 1 mg/kg; type: ADME, organism-based; details: in vivo
[2] = Half life in Sprague-Dawley rat at 0.5 mg/kg, iv; type: ADME, organism-based; design: dose 0.5 mg/kg, route intravenous; details: in vivo
[3] = molecular target: T1, Bombesin receptor subtype-3 (Mus musculus, UniProt O54798); assay: Agonist activity at mouse BRS-3 expressed in HEK293AEQ cells assessed as bioluminescence for 10 mins by aequorin bioluminescence assay; type: functional, cell-based
T1 sequence (O54798 whole entry): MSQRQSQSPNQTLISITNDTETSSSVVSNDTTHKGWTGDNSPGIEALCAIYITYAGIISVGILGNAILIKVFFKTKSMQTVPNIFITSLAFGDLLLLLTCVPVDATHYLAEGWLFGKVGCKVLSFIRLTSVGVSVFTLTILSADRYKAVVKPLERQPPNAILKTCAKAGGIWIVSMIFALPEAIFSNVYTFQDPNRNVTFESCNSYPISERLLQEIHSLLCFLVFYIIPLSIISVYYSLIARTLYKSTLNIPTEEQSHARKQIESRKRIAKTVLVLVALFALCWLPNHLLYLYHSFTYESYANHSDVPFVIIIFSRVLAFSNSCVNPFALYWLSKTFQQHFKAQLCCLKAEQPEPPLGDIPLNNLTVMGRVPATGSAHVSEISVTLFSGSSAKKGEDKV

[4] = molecular target: T2, Bombesin receptor subtype-3 (Homo sapiens) (UniProt P32247); assay: Agonist activity at human BRS-3 expressed in HEK293AEQ cells assessed as bioluminescence for 10 mins by aequorin bioluminescence assay relative to dY-peptide; type: functional, cell-based
T2 sequence (whole entry): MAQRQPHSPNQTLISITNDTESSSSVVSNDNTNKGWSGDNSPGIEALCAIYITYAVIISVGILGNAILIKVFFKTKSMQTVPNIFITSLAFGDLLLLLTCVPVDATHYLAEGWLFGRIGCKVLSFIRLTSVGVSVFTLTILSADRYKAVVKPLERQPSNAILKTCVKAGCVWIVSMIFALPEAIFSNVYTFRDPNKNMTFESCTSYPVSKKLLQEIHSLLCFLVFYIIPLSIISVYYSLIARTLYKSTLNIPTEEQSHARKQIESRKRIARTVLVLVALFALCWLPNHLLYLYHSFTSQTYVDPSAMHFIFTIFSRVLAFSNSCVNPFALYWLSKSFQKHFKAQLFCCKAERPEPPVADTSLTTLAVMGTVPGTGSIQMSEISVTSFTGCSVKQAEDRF

[5] = molecular target: T3, Bombesin receptor subtype-3 (Homo sapiens, UniProt P32247); assay: Displacement of [125I]-dY-peptide from human BRS-3 expressed in NFAT-CHO cells after 2 hrs by liquid scintillation counting; type: cell-based
T3 sequence (P32247 whole entry): T2 sequence (whole entry)

[6] = Plasma clearance in Sprague-Dawley rat at 0.5 mg/kg, iv; type: ADME, organism-based; design: dose 0.5 mg/kg, route intravenous
[7] = molecular target: T4, Nuclear receptor subfamily 1 group I member 2 (Homo sapiens, UniProt O75469); assay: Activation of PXR at 10 uM
T4 sequence (O75469 whole entry): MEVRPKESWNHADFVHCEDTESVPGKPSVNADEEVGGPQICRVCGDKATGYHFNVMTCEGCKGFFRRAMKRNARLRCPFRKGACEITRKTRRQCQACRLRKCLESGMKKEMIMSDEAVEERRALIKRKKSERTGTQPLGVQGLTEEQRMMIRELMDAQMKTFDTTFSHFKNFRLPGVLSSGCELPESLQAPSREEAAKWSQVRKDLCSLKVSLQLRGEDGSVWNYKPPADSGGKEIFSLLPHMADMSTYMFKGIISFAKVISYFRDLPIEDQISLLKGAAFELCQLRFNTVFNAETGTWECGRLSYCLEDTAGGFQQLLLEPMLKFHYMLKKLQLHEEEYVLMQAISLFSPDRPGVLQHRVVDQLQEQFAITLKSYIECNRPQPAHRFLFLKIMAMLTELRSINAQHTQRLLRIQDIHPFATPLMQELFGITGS

[8] = molecular target: T4, Nuclear receptor subfamily 1 group I member 2; assay: Activation of PXR
[9] = molecular target: T5, Bombesin receptor subtype-3 (Mus musculus) (UniProt O54798); assay: Agonist activity at mouse BRS-3 expressed in HEK293AEQ cells assessed as bioluminescence for 10 mins by aequorin bioluminescence assay relative to dY-peptide; type: functional, cell-based
T5 sequence (whole entry): T1 sequence (O54798 whole entry)

Rattus norvegicus [10] = assay: Dose normalized AUC in Sprague-Dawley rat at 1 mg/kg, po; type: ADME, organism-based; design: dose 1 mg/kg, route oral; details: in vivo
Mus musculus [11] = assay: Increase of core body temperature in DIO mouse assessed as AUC (1 to 6 hrs) of body temperature changes at 3 mg/kg by fasted temperature PD assay; type: functional
[12] = molecular target: T3, Bombesin receptor subtype-3; assay: Agonist activity at human BRS-3 expressed in HEK293AEQ cells assessed as bioluminescence for 10 mins by aequorin bioluminescence assay; type: functional, cell-based
[13] = Oral bioavailability in dog at 1 mg/kg; type: ADME, organism-based, Canis lupus familiaris; details: in vivo
Rattus norvegicus [14] = assay: Antiobesity activity in DIO Sprague-Dawley rat assessed as increase in metabolic rate at 15 to 50 mg/kg, po administered bid for 12 days; type: functional, organism-based
Rattus norvegicus [15] = assay: Antiobesity activity in DIO Sprague-Dawley rat assessed as reduction of body weight at 15 mg/kg, po administered bid for 12 days; type: functional; design: scale not given: the % may be the effect or the level left
Canis familiaris [16] = assay: Dose normalized AUC in dog at 1 mg/kg, po; type: ADME, organism-based, Canis lupus familiaris; design: dose 1 mg/kg, route oral; details: in vivo
Canis familiaris [17] = assay: Antiobesity activity in obese Beagle dog assessed as reduction of body weight at 5 to 15 mg/kg, po administered for 7 days relative to control; type: functional, Canis lupus familiaris; design: scale not given: the % may be the effect or the level left; details: dose mg/kg 5-15
Rhesus monkey = assay: Dose normalized AUC in rhesus monkey at 1 mg/kg, po; type: ADME, organism-based, Macaca mulatta; design: dose 1 mg/kg, route oral; details: in vivo
[18] = Plasma clearance in rhesus monkey at 0.5 mg/kg, iv; type: ADME, organism-based, Macaca mulatta; design: dose 0.5 mg/kg, route intravenous
Mus musculus [19] = assay: Antiobesity activity in po dosed wild type DIO C57 mouse assessed as reduction of food intake; type: functional, organism-based
[20] = Half life in dog at 0.5 mg/kg, iv; type: ADME, organism-based, Canis lupus familiaris; design: dose 0.5 mg/kg, route intravenous; details: in vivo
[21] = Plasma clearance in dog at 0.5 mg/kg, iv; type: ADME, organism-based, Canis lupus familiaris; design: dose 0.5 mg/kg, route intravenous
Mus musculus [22] = assay: Antiobesity activity in BRS-3 knock out DIO C57BL/6 mouse assessed as reduction of food intake at 100 mg/kg, po after 18 hrs; type: functional, organism-based; design: dose 100 mg/kg
Mus musculus [23] = assay: Antiobesity activity in po dosed wild type DIO C57 mouse assessed as reduction of body weight; type: functional, organism-based
Rattus norvegicus [24] = assay: Antiobesity activity in DIO Sprague-Dawley rat assessed as reduction of body weight at 50 mg/kg, po administered bid for 12 days; type: functional; design: scale not given: the % may be the effect or the level left
[25] = Oral bioavailability in rhesus monkey at 1 mg/kg; type: ADME, organism-based, Macaca mulatta; details: in vivo
[26] = Half life in rhesus monkey at 0.5 mg/kg, iv; type: ADME, organism-based, Macaca mulatta; design: dose 0.5 mg/kg, route intravenous; details: in vivo
Rattus norvegicus [27] = assay: Toxicity in DIO Sprague-Dawley rat assessed as tachyphylaxis at 15 to 50 mg/kg, po administered bid for 12 days; type: organism-based; design: dose 15-50 mg/kg, route oral; details: in vivo, 288 h
Rattus norvegicus [28] = assay: Antiobesity activity in DIO Sprague-Dawley rat assessed as reduction of body weight at 3 mg/kg, po administered bid for 12 days; type: functional; design: scale not given: the % may be the effect or the level left

Compound	bioavailability [1] [%]	half-life [2] [h]	EC50 [3] [nM]	Activity [4] [%]	IC50 [5] [nM]	clearance [6] [mL/min/kg]	Activity [7] [%]	EC50 [8] [nM]	Activity [9] [%]	AUC/dose (Rattus norvegicus [10]) [µM·kg·h/mg]	Activity (Mus musculus [11]) [degreeC.hr]	EC50 [12] [nM]	further results
C[C@@H](O)c1nc(-c2cccc3c2N(S(=O)(=O)c2ccc(C(C)(C)C)cc2)Cc2ccc(C(F)(F)F)nc2N3)no1	11	1.8	134	107	1.9	33	18	> 25000	112	0.9	0.4	69	–
C[C@H](O)c1nc(-c2cccc3c2N(S(=O)(=O)c2ccc(C(C)(C)C)cc2)Cc2ccc(C(F)(F)F)nc2N3)no1	14	2.1	89	102	1.2	86	9	> 10000	109	0.34	3.7	52	–
CC(C)(C)c1ccc(S(=O)(=O)N2Cc3ccc(C(F)(F)F)nc3Nc3cccc(-c4noc(=O)[nH]4)c32)cc1	–	–	76	104	29	–	42	1900	105	–	-0.52	77	–
CC(C)(O)c1nc(-c2cccc3c2N(S(=O)(=O)c2ccc(C(F)(F)F)cc2)Cc2ccc(C(F)(F)F)nc2N3)no1	100	2.5	95	–	8.3	33	6	> 30000	97	1.05	5.22	–	–
Cc1ccc2c(c1C)N(S(=O)(=O)c1ccc(C(C)(C)C)cc1)Cc1ccc(C(F)(F)F)nc1N2	–	–	–	–	–	–	42	–	–	–	–	–	–
CC(C)(C)c1ccc(S(=O)(=O)N2Cc3ccc(C(F)(F)F)nc3Nc3cccc(-c4cccnc4)c32)cc1	–	–	58	99	1.72	–	77	1800	105	–	-0.99	42	–
CC(C)(O)c1nc(-c2cccc3c2N(S(=O)(=O)c2ccc(OC(F)(F)F)cc2)Cc2ccc(C(F)(F)F)nc2N3)no1	–	–	–	–	–	–	17	> 30000	106	1.6	5.6	–	bioavailability [13]: 100%; Activity (Rattus norvegicus [14]): Active; Activity (Rattus norvegicus [15]): 4%; AUC/dose (Canis familiaris [16]): 10 µM·kg·h/mg; Activity (Canis familiaris [17]): 4%; AUC/dose (Rhesus monkey): 12 µM·kg·h/mg; clearance [18]: 1.3 mL/min/kg; Activity (Mus musculus [19]): Dose-dependent effect; half-life [20]: 18 h; clearance [21]: 2.9 mL/min/kg; Activity (Mus musculus [22]): inactive; Activity (Mus musculus [23]): Dose-dependent effect; Activity (Rattus norvegicus [24]): 3.2%; bioavailability [25]: 58%; half-life [26]: 33 h; Activity (Rattus norvegicus [27]): Non-toxic
CCNC(C)Cc1cccc(C(F)(F)F)c1 (stereo unspecified) [FENFLURAMINE]	–	–	–	–	–	–	–	–	–	–	–	–	Activity (Rattus norvegicus [28]): 6.2%
CC(C)(C)c1ccc(S(=O)(=O)N2Cc3ccc(C(F)(F)F)nc3Nc3cccc(-c4noc(C(C)(C)O)n4)c32)cc1	14	1.9	83	106	0.9	44	13	> 10000	117	0.65	2.6	52	–
CC(C)(C)c1ccc(S(=O)(=O)N2Cc3ccc(C(F)(F)F)nc3Nc3cccc(-c4ncon4)c32)cc1	–	–	57	102	1.1	–	53	11800	116	–	2.1	40	–
CC(C)c1ccc(S(=O)(=O)N2Cc3ccc(C(F)(F)F)nc3Nc3cccc(-c4noc(C(C)(C)O)n4)c32)cc1	8	1.6	147	–	1.7	49	80	2400	114	–	4.93	–	–
CC(C)(O)c1nc(-c2cccc3c2N(S(=O)(=O)c2ccc(OC(F)F)cc2)Cc2ccc(C(F)(F)F)nc2N3)no1	–	–	99	–	18	–	22	10000	94	–	3.31	–	–
Cn1cc(-c2cccc3c2N(S(=O)(=O)c2ccc(C(C)(C)C)cc2)Cc2ccc(C(F)(F)F)nc2N3)cn1	–	–	102	95	0.76	–	50	1100	110	–	0.2	63	–
CC(C)(C)c1ccc(S(=O)(=O)N2Cc3ccc(C(F)(F)F)nc3Nc3cccc(-c4noc(CO)n4)c32)cc1	29	1.7	93	102	0.7	22	78	3500	114	0.39	2.6	56	–
CC(C)(C)c1ccc(S(=O)(=O)N2Cc3ccc(C(F)(F)F)nc3Nc3cccc(C4CCNCC4)c32)cc1	–	–	115	101	1.4	–	37	6600	129	–	-0.74	114	–
